Assay results as given in patent publication US7550458B2, “Tricycloundecane compounds useful as modulators of nuclear hormone receptor function” (Bristol-Myers Squibb Company, priority 2005, dated 2009).
Like-named read-outs stand apart in the source and are kept apart here.

Key:
AR [1] = target: T1, AR (Rattus norvegicus, UniProt P15207)
T1 sequence (P15207 1-902): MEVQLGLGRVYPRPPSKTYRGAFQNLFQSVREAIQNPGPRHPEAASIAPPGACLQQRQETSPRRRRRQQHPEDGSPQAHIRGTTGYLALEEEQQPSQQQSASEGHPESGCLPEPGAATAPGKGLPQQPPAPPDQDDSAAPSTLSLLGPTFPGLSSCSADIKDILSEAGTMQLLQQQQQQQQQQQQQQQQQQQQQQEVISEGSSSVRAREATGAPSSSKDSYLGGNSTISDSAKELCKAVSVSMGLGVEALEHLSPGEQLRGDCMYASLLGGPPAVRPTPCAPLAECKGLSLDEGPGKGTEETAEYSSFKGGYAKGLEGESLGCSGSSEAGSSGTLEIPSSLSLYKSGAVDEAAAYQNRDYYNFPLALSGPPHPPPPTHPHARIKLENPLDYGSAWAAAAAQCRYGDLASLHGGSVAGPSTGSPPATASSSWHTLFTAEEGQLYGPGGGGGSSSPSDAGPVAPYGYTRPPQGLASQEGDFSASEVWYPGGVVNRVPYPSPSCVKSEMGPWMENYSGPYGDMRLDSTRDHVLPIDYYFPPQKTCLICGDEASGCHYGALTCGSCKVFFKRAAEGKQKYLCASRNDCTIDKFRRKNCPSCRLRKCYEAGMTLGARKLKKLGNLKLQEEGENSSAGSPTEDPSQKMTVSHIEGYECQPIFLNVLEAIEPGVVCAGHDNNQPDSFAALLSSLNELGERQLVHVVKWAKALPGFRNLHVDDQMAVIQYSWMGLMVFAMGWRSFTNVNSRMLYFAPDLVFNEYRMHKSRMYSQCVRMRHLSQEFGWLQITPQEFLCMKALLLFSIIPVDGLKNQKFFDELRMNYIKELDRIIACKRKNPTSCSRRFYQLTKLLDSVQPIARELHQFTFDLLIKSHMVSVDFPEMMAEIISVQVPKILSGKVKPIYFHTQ

AR [2] = target: T1, AR; details: castrated rats, dosing for 3 days
Text: The activity of compounds of the present invention as AR agonists is investigated in an immature male rat model, a recognized test of anabolic effects in muscle and sustaining effects in sex organs for a given compound, as described in L. G. Hershberger et al., Proc. Soc.
The basis of this assay lies in the well-defined action of androgenic agents on the maintenance and growth of muscle tissues and sexual accessory organs in animals and man. […] As described above, the effects of androgens on maintenance of male sexual accessory organs, such as the prostate and seminal vesicles, was described. […] Since both the levator ani muscle and the male sex organs are the tissues most responsive to the effects of androgenic agents, this model is used to determine the androgen dependent reversal of atrophy in the levator ani muscle and the sex accessory organs in immature castrated rats. Sexually mature rats (200-250 g, 6-8 weeks-old, Sprague-Dawley, Harlan) are acquired castrated from the vendor (Taconic). The rats are divided into groups and treated daily for 7 to 14 days with one of the following: • 1. Control vehicle • 2. […] TP plus Casodex (administered p.o. in PEGTW, QD), a recognized antiandrogen, as a reference compound. • 4. […] At the end of the 7-14-day treatment, the animals are sacrificed by carbon dioxide, and the levator ani, seminal vesicle and ventral prostate weighed. […]

glucocorticoid receptor = glucocorticoid receptor (Homo sapiens, UniProt P04150); details: at a concentration of ≦10 μM, A549 cells
Experimental: Cells are plated the day before the assay at approximately 40000 cells/well. […] Activity is measured by analysis in a luminometer as compared to control experiments treated with buffer or dexamethasome.

wild type AR = assay: AR whole cell binding assay, saturation analysis, MDA 453 cells; parameters: species or system human; details: read-out: Kd for [^3H]-DHT, Scatchard analysis

Sequence of glucocorticoid receptor (P04150 whole entry): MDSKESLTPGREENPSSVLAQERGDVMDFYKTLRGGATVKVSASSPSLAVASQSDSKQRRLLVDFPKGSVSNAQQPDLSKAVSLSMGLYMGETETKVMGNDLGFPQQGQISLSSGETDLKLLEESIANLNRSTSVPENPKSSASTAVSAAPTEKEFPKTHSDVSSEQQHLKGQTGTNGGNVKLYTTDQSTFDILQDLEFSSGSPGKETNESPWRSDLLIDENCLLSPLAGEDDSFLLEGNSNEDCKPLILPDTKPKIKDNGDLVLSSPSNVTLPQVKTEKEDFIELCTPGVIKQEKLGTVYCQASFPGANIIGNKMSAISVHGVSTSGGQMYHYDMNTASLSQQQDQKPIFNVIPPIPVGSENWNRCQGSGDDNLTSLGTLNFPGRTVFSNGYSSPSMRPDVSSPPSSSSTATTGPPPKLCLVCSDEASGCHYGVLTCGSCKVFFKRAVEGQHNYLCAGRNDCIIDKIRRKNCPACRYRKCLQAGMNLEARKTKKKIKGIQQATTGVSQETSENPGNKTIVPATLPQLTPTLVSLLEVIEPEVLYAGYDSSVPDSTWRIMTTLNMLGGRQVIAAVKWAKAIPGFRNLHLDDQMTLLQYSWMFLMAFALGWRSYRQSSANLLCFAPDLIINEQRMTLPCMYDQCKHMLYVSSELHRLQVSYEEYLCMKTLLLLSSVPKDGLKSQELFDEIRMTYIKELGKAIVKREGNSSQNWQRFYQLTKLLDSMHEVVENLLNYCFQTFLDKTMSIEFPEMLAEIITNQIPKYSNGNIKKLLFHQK

Structure (SMILES): CCC(=O)O[C@H]1CC[C@H]2[C@@H]3CCC4=CC(=O)CC[C@]4(C)[C@H]3CC[C@]12C [TP, testosterone propionate]
- ED80 of TP (AR [1]; immature castrated rat model): 0.1 mg
- EC50 (increase in organ weight) (AR [1]; immature castrated rats, dosing for 3 days): ~0.03 mg
- EC50 (increase in organ weight) (AR [2]): ~0.03 mg

Structure (SMILES): C[C@@H]1C[C@H]2[C@@H]3CCC4=CC(=O)C=C[C@]4(C)[C@@]3(F)[C@@H](O)C[C@]2(C)[C@@]1(O)C(=O)CO [dexamethasone]
- suppression of activity (% inhibition of the reporter system vs buffer control with 10 ng/ml PMA) (glucocorticoid receptor): ~65%
